# Results filed as inconclusive are left out. Calls of active or inactive are those of the source. The rule behind the calls is not given here.
# Test system: Mycobacterium tuberculosis non-replicating, growth inhibition
# Assay: growth inhibition of non-replicating M. tuberculosis (AID 488890)
row,SMILES,IC50
1,Clc1ccc(OCCCCN2CCc3ccccc3C2)cc1,9.36 µM
2,O=C(N/N=C/c1ccc(O)cc1)c1cccc(C(F)(F)F)c1,16 µM (inactive)
3,COc1ccc(NC(=O)c2nc3ccccc3s2)cc1,9.36 µM
4,Nc1ccccc1C(=O)NNC1=C(C(=O)C(F)(F)F)CCC1,14.7 µM (inactive)
5,COc1ccc(NC(=O)C(=O)NNC(=O)C(C)Oc2ccc(Cl)cc2Cl)cc1 (centres undefined),1.53 µM
6,Cc1ccccc1NC(=O)C1COc2ccccc2O1 (centres undefined),9.25 µM
7,O=C(N/N=C/C=C/c1ccccc1)c1ccccn1,7.93 µM
8,Cn1c(O)c(C(=Nc2ccccc2)SCc2ccccc2Cl)c(=O)n(C)c1=O,8.25 µM
9,CCOC(=O)c1ccc(NC2OC(=O)c3ccccc32)cc1 (centres undefined),3.99 µM
10,COc1ccc(S(=O)(=O)NCc2ccc3c(c2)cc(C)n3C)cc1,19.9 µM (inactive)
11,O=C(CCSc1nnc(-c2ccncc2)o1)Nc1cccc(Cl)c1,20.3 µM (inactive)
12,Clc1c(OCCCn2ccnc2)ccc2ccccc12,9.74 µM
13,O=C(NC(=S)Nn1cnc2c(cnn2-c2ccccc2)c1=O)c1ccccc1,22.2 µM (inactive)
14,CCCCNC(=O)COC(=O)c1cc(Br)ccc1Cl,3.86 µM
15,Cc1ccccc1OCCCCc1c(C)n[nH]c1C,13.1 µM (inactive)
16,CCCCCCCC(=O)N/N=C(\C)c1ccc(O)cc1O,1.57 µM
17,O=C(N/N=C\C=C\c1ccco1)c1cncc(Br)c1,34.4 µM (inactive)
18,CC(C)CCCn1c(O)c(/C=C2/C=CC=N2)c(=O)[nH]c1=O,0.27 µM
19,COC(=O)C(C)Oc1ccc2cc(-c3ccccc3)c(=O)oc2c1 (centres undefined),4.96 µM
20,Cc1cccc(NC(=O)c2ccc([N+](=O)[O-])s2)n1,0.52 µM
21,COc1ccc(C(=O)Nc2nnc(-c3ccccc3)o2)cc1OC,10.4 µM (inactive)
22,CCN(CC)c1ccc2c(c1)oc(=O)c1c(Cl)cc(=O)oc12,3.7 µM
23,COc1ccc(C(=O)CCS(=O)(=O)c2ccc(C)cc2)cc1OC,4.05 µM

row,SMILES,IC50
1,CCn1nnc(NC(=O)c2ccc(-c3ccc(Cl)cc3)o2)n1,3.07 µM
2,C/C(=N\Nc1ccc(Cl)cc1)c1ccccn1,15.9 µM (inactive)
3,O=C(NCc1cccs1)c1ccc([N+](=O)[O-])cc1,2.84 µM
4,Cc1ccccc1C(=O)NNc1ccc([N+](=O)[O-])cc1,20.4 µM (inactive)
5,Cc1c([N+](=O)[O-])cnc(Sc2ccccc2)c1[N+](=O)[O-],6.43 µM
6,O=C(N/N=C/c1ccccn1)c1cccc(S(=O)(=O)Nc2ccccc2Cl)c1,15.1 µM (inactive)
7,CC1(C)Oc2ccc(NC(=O)C3COc4ccccc4O3)cc2O1 (centres undefined),12.9 µM (inactive)
8,CCCn1c(CNc2ccccc2O)nc2ccccc21,3.3 µM
9,NC(=O)COC(=O)c1sc2ccccc2c1Cl,8.25 µM
10,Cc1ccc2c(c1)C(=O)C(=O)N2CCCOc1ccccc1,22.9 µM (inactive)
11,O=C(NN=C(Cc1ccccc1)Cc1ccccc1)c1ccncc1,0.35 µM
12,O=C(Nc1ncc([N+](=O)[O-])s1)c1ccc2c(c1)OCO2,4.75 µM
13,Cc1c(C(=O)N(C)C)sc2nc(-c3ccccn3)[nH]c(=O)c12,32.7 µM (inactive)
14,Cn1cnc([N+](=O)[O-])c1Sc1ccc([N+](=O)[O-])cc1,19.7 µM (inactive)
15,CC1=NN(C(=O)c2ccc(Br)cc2)C(O)(c2ccccc2)C1 (centres undefined),0.47 µM
16,CCCCCC1CC(CC(=O)NC(=S)Nc2ccc([N+](=O)[O-])cc2)C(=O)O1 (centres undefined),6.68 µM
17,CCCCCCCC(=O)N/N=C(/C)c1c(O)cc(C)oc1=O,4.26 µM
18,O=C(OCn1nnc2ccccc2c1=O)c1cccs1,12.4 µM (inactive)
19,CC1C/C(=N/NC(=O)c2cccc(F)c2)c2ccc(O)cc2C1 (centres undefined),14 µM (inactive)
20,CCOC(=O)c1c(NC(C)=O)sc2c(OCC(O)CNC(C)(C)C)c(Br)ccc12 (centres undefined),4.44 µM
21,CC(=O)Nc1nc2ccccc2n1Cc1ccc(Cl)cc1,1.93 µM
22,CCOC(=O)c1c(NC(=O)COC(=O)c2ccccn2)sc2c1CCC2,7.87 µM
23,COC(=O)c1ccc(C(=O)NC2CC(C)(C)Cc3c2cnn3-c2ccc(F)cc2)nc1 (centres undefined),15.7 µM (inactive)

row,SMILES,IC50
1,O=c1c2cc(Cl)ccc2nc(-c2ccc([N+](=O)[O-])cc2)n1O,2.2 µM
2,O=C(c1cc([N+](=O)[O-])cc([N+](=O)[O-])c1)N(Cc1nnc(-c2ccccc2Cl)o1)C1CC1,4.46 µM
3,O=C1/C(=C/c2ccccn2)COc2ccccc21,15.8 µM (inactive)
4,COc1ccc(CCOC(=O)c2ccc(N)c([N+](=O)[O-])c2)cc1,12.3 µM (inactive)
5,Cc1cccc2cc(C#N)c(NCCCn3ccnc3)nc12,23.3 µM (inactive)
6,O=C(Cn1cc([N+](=O)[O-])nc1[N+](=O)[O-])N1CCN(c2ccccc2)CC1,12.8 µM (inactive)
7,CC(C)(C)c1ccc(NC(=O)COc2ccc(-n3ccnc3)cc2)cc1,30.2 µM (inactive)
8,O=C(c1ccc(-c2ccc([N+](=O)[O-])cc2)o1)N1CCCCCCC1,11.6 µM (inactive)
9,Cc1cccc(-c2nnc3sc(-c4ccccc4C)nn23)c1,22.4 µM (inactive)
10,CC(NCC(O)COCCC12CC3CC(CC(C3)C1)C2)c1ccccc1 (centres undefined),7.88 µM
11,O=C(OCn1ncc(Br)c(Br)c1=O)c1ccccc1Cl,6.27 µM
12,Cc1cc(N/N=C/c2ccc(O)cc2O)nc(-n2nc(C)cc2C)n1,0.77 µM
13,COc1ccc(OCC(=O)Nc2ccc(N3CCN(C(=O)c4ccco4)CC3)cc2)cc1,20.8 µM (inactive)
14,Cc1cc(C)c(C(=O)COC(=O)c2ccc([N+](=O)[O-])o2)cc1C,0.93 µM
15,NC(=O)COc1ccc2cc(-c3ccc(F)cc3)c(=O)oc2c1,18 µM (inactive)
16,C/C(=N\NC(=O)c1cccs1)c1ccc2c(c1)OCO2,8.78 µM
17,Cc1c(-c2ccc(Br)cc2)nc2ccccn12,18.9 µM (inactive)
18,COc1ccc(-c2nnc(NC(=O)C3=COCCO3)o2)cc1,27.1 µM (inactive)
19,S=c1[nH]c2ccccc2o1,27.5 µM (inactive)
20,Cc1ccc(C(=O)CCC2CCCC2=O)cc1 (centres undefined),14.4 µM (inactive)
21,CCn1c(NC(=O)c2nn(C)cc2Br)nc2ccccc21,4.97 µM
22,O=C(c1cccc2cccc(O)c12)N1CCCCC1,3.82 µM
23,Cn1c(SCc2c(F)cccc2Cl)nc2c(c1=O)SCC2,28.2 µM (inactive)

row,SMILES,IC50
1,CCOC(=O)c1cc2cc3ccccc3cc2oc1=O,37.6 µM (inactive)
2,CCOC(=O)c1sc2nc(CSc3ccccc3)nc(NCCN(C)C)c2c1C,14.9 µM (inactive)
3,CC(=O)Oc1ccc(N2C(=O)c3cccc4c([N+](=O)[O-])ccc(c34)C2=O)cc1,0.37 µM
4,CC(=O)Nc1ccc(NC(=O)c2cc([N+](=O)[O-])cc([N+](=O)[O-])c2)cc1,8.92 µM
5,CN(C)CCCn1c(=O)n(C2CCCCC2)c(=O)c2c3c(sc21)CCCCC3,20.7 µM (inactive)
6,C/C(Cn1nnc([N+](=O)[O-])n1)=N\NC(=O)c1ccncc1,1.63 µM
7,COc1cc(/C=N/Nc2cccc3cccnc23)cc(OC)c1O,15.2 µM (inactive)
8,c1ccc2[nH]c(NC3=NCCC3)nc2c1,19.2 µM (inactive)
9,Cc1ccc(/C=C2/C(=O)NC(=O)N(CCc3ccc(F)cc3)C2=O)s1,16.7 µM (inactive)
10,O=C(OCc1nc2ccccc2s1)c1ccc(Br)o1,3.63 µM
11,Cc1nnc(SCCC(=O)Nc2ccc(Cl)cc2)o1,39.2 µM (inactive)
12,O=c1cc(C(F)(F)F)[nH]c2c(C(F)(F)F)cccc12,5.78 µM
13,OC(COc1ccccc1Cl)CN1CCN(CC(O)COc2ccccc2Cl)CC1 (centres undefined),19 µM (inactive)
14,O=C(CCSc1ccc(Cl)cc1)Nc1cccnc1,> 50 µM (inactive)
15,O=c1c2c([N+](=O)[O-])cc([N+](=O)[O-])cc2sn1-c1ccc(Br)cc1,18.5 µM (inactive)
16,OCC1(CCOc2ccccc2)CCN(Cc2cc(Cl)ccc2O)CC1,24.1 µM (inactive)
17,Cc1nc2ccc(NC(=O)COc3cccc(F)c3)cc2s1,7.87 µM
18,Cc1ccc(C(=O)NNC(=S)NC(=O)c2ccc(Cl)cc2)cc1,4.01 µM
19,Cc1ccc2c(C)ccc(O)c2n1,5.18 µM
20,O=C1CC(N2CCN(Cc3ccccc3)CC2)C(=O)N1CCc1ccccc1 (centres undefined),22.3 µM (inactive)
21,O=C(Nc1nnc(-c2ccccn2)o1)c1cccc(Cl)c1,11.4 µM (inactive)
22,COC(=O)c1ccc(CO/N=C/c2ccc(OC)cc2)o1,6.95 µM
23,O=C(O)c1ccc(CN2C(=O)CSC2=S)cc1,9 µM

row,SMILES,IC50
1,Cc1cc2oc3ccc(NCCCn4ccnc4)cc3c(=O)c2cc1C,20.9 µM (inactive)
2,Cc1ccc2[nH]c3c(c2c1)CCCC3NCCO (centres undefined),13.7 µM (inactive)
3,Cc1ccc(NC(=O)COc2ccc3c(c2)CCC3)nc1,6.66 µM
4,N#Cc1nc(-c2cccs2)oc1NCCc1ccccc1,4.77 µM
5,CCCc1cc(NCc2ccccn2)n2nc(C)c(-c3ccccc3)c2n1,2.23 µM
6,O=S(=O)(Nc1nccs1)c1ccc(NCc2cc(Br)cc(Br)c2O)cc1,10.7 µM (inactive)
7,O=C(Nc1ccc(Br)cc1)c1cc([N+](=O)[O-])cc([N+](=O)[O-])c1,2.63 µM
8,Cc1ccc(-c2nnc(COC(=O)c3cccs3)o2)cc1,13.8 µM (inactive)
9,CC(C)c1ccc(OCC(=O)NC2=NCCS2)cc1,22.2 µM (inactive)
10,O=C(c1ccccc1)C1CN(Cc2ccccc2)CCC1(O)c1ccccc1 (centres undefined),3.82 µM
11,O=C(c1cc2ccccc2o1)N1CCN(Cc2ccccc2)CC1,7.64 µM
12,O=[N+]([O-])c1ccc(Nc2ccccc2O)c2nonc12,5.94 µM
13,COc1ccc(C(CCNCc2ccccc2)c2ccc(F)cc2)cc1 (centres undefined),8.67 µM
14,OC(CNCC1CCCO1)Cn1c2ccc(Cl)cc2c2cc(Cl)ccc21 (centres undefined),8.38 µM
15,O=C(Oc1ccc(/C=N/O)cc1)c1ccccc1Cl,12.4 µM (inactive)
16,O=S(=O)(c1ccc(OCC2CO2)cc1)c1ccc(OCC2CO2)cc1 (centres undefined),19.7 µM (inactive)
17,CCOc1ccc(C(=O)Nc2nc3ccccc3[nH]2)cc1OCC,9.11 µM
18,CC1=NN(C(=O)c2csc(C)c2C)C(O)(C(F)(F)F)C1 (centres undefined),0.4 µM
19,CC1=NN(C(=O)c2ccc(Cn3nc(C)c(Br)c3C)cc2)C(O)(C(F)(F)F)C1 (centres undefined),0.58 µM
20,Cc1cc(NC(=O)c2sccc2C)n(-c2nc3ccccc3[nH]2)n1,8.81 µM
21,Cc1cc(C)n(-c2ccc3cccc(NS(C)(=O)=O)c3n2)n1,4.85 µM
22,CCC(C)(C)c1ccc(OCC(=O)Nc2ccncc2)cc1,4.38 µM
